Our source for the EC50 values is patent US20230310377A1, “METHODS OF TREATING LYSOSOMAL STORAGE DISEASES AND METHODS RELATED THERETO” (RECURSION PHARMACEUTICALS, INC., priority 2020, published 2023).

Format in all cases: cell-based
The test system of assay [1] is Sandhoff (HEXB) disease and Tay-Sachs (HEXA) disease patient fibroblasts. Briefly: GM2 ganglioside accumulation (immunofluorescence) in Sandhoff and Tay-Sachs patient fibroblasts. Particulars: Homo sapiens, Fibroblast. As to the method: (§1) Healthy, Sandhoff (HEXB) disease, and Tay-Sachs (HEXA) disease patient fibroblasts were plated and treated with ruboxistaurin mesylate twice over 17 days. At day 0 cells were seeded. On day 5 the media was changed and initial dose of the compound was delivered. On day 10 the media was changed again and the second dose of the compound was delivered. On day 17 the cells were fixed, immunoflourescence-labeled, and imaged for GM2 (see FIG. 1). […] FIGS. 2A-1 and 3A depict the dose response for two separate experiments. FIGS. 2B-1 and 3B depict mean fluorescence or mean aggregate count for each experiment±SEM of technical replicates, combining 3-5 patient lines for each group. n=12-40 images from two well replicates imaged at 4-sites per well for each line at each dose. Data in each panel represents n=1 experiment performed. FIGS. 2C and 3C depict nuclei per image from the same image sets.
(§2) The same experiment was performed for each of sotrastaurin, enzastaurin, LY2090314, AZD1080, and AZD2858. FIG. 2A-2 depicts the dose response for sotrastaurin. FIG. 2A-3 depicts the dose response for enzastaurin.
EC50 calculations were based on GM2 aggregate counts (not mean fluorescence).
The leftmost concentration in all graphs is DMSO control.

Assay [2] concerns Tay-Sachs (HEXA) disease patient fibroblasts. Briefly: GM2 ganglioside accumulation in Tay-Sachs (HEXA) patient fibroblasts. Particulars: Homo sapiens, Fibroblast, read-out: GM2 ganglioside ED50 for HEXA. On the procedure: as §1, §2
The subject of assay [3] is Sandhoff (HEXB) disease patient fibroblasts. Nature of the assay: GM2 ganglioside accumulation in Sandhoff (HEXB) patient fibroblasts. Particulars: Homo sapiens, Fibroblast, read-out: GM2 ganglioside ED50 for HEXB. As to the method:
as §1, §2

Assay [4] has as its system Sandhoff (HEXB) disease and Tay-Sachs (HEXA) disease patient fibroblasts. Briefly: Mean cytoplasmic autofluorescence in patient fibroblasts. To be noted: Homo sapiens, Fibroblast, experimentally determined, read-out: autofluorescence ED50. As to the method: as §1
FIGS. 2D-1 and 2D-2 depict mean cytoplasmic autofluorescence for ruboxistaurin and sotrastaurin, respectively.

The mark [5] stands for this setting: GM2 aggregate counts (not mean fluorescence), Expmts 1936 and 1925, read-out: ED50 based on GM2 aggregate counts.
Setting [6] is: experimentally determined, patient fibroblasts, read-out: GM2 ganglioside ED50.

In the case of `N#Cc1ccc2[nH]c(O)c(-c3ccc(CN4CCOCC4)cn3)c2c1` [AZD1080], the EC50 in assay [1] (setting [5]) stood at 1.59 µM.
As to `Cn1cc(C2=C(c3cn(C4CCN(Cc5ccccn5)CC4)c4ccccc34)C(=O)NC2=O)c2ccccc21` [Enzastaurin], the EC50 in assay [2] was around 0.265 µM; in assay [3] it was around 0.55 µM.
Turning to `O=C1NC(=O)C(c2cnc3ccccn23)=C1c1cn2c3c(cc(F)cc13)CN(C(=O)N1CCCCC1)CC2` [LY2090314], the EC50 in assay [1] (setting [5]) worked out at 0.00876 µM.
For the compound `CN(C)C[C@@H]1CCn2cc(c3ccccc32)C2=C(C(=O)NC2=O)c2cn(c3ccccc23)CCO1` [Ruboxistaurin, (18S)-18-[(dimethylamino)methyl]-17-oxa-4,14,21-triazahexacyclo[19.6.1.17,14.02,6.08,13.022,27]nonacosa-1(28),2(6),7(29),8,10,12,22,24,26-nonaene-3,5-dione], the EC50 in assay [4] is around 0.25 µM; in assay [1] (setting [6]), around 0.3 µM.
Regarding `CN1CCN(c2nc(C3=C(c4c[nH]c5ccccc45)C(=O)NC3=O)c3ccccc3n2)CC1` [Sotrastaurin], the EC50 in assay [1] (setting [6]) was around 0.09 µM.
